Patent publication EP4000614A1, “EFLOXATE FOR USE AS ANTIVIRAL AGENT” (Consejo Superior de Investigaciones Científicas (CSIC), priority 2020, dated 2022)

Tests used:
Vero-E6 cells = assay: Cytotoxicity measurement by MTT assay; format: cell-based; conditions: 48 hours
Protocol: (§1) Cytotoxicity measurement by MTT assays (MTT assay: cell viability assay that infers reductive capacity of the cells via formation of formazan precipitates. Overall estimation of cell metabolic rate): Vero-E6 cell monolayers were treated with a wide range of compound concentrations (from 50 to 0.78 µM) and forty-eight hours later they were subjected to MTT assays following the manufacturer's instructions. Compound concentration leading to a 50% of cytotoxicity (CC50) were determined (Table 2).

[1] = Cytotoxicity measurement by MTT assay; format: cell-based; conditions: African green monkey, Vero-E6 cells
Protocol: as §1

RD114-pseudotypes = format: cell-based
229E-GFP virus = assay: microbe, parasite or virus in culture; format: cell-based, human 229E coronavirus; conditions: 72 h
[2] = test system: SARS-CoV-2 S protein-pseudotyped retroviral vectors; format: cell-based
[3] = test system: pseudotypes based on vesicular stomatitis virus (VSV-G) glycoprotein; format: cell-based
SARS-CoV-2 E RNA = assay: Intracellular viral RNA quantitation by RT-qPCR in Vero-E6 cells; format: cell-based; conditions: for VIRAL LOAD MOI 0.001 (% OF CONTROL): MOI 0.001, 48 hours, Vero-E6; for LOG DROP: relative reduction in viral RNA accumulation in log scale
in vitro = conditions: human
[4] = test system: SARS-CoV-2 strain NL/2020; assay: SARS-CoV-2 cell monolayer protection assay (crystal violet) in Vero-E6 cells

CCOC(=O)COc1ccc2c(=O)cc(-c3ccccc3)oc2c1 [Efloxate, efloxate]
HIGHEST NON-TOXIC CONCENTRATION (MTT) (Vero-E6 cells): 12.5 | CC50 at 48 h [1]: > 50 µM | RD114pp (% of control) (RD114-pseudotypes): 153.15 % of control | EC50 (229E-GFP virus; human coronavirus 229E): 1.6 µM | EC90 (229E-GFP virus; unidentified human coronavirus): 5 µM | Spp (% of control) [2]: 16.68 % of control | pseudotype entry selectivity [2]: interfere selectively with Spp entry | VSVpp (% of control) [3]: 106.24 % of control | VIRAL LOAD MOI 0.001 (% OF CONTROL) (SARS-CoV-2 E RNA; dose 12.5 µM): 27.42 % OF CONTROL | VIRAL LOAD MOI 0.001 (% OF CONTROL) (SARS-CoV-2 E RNA; dose 25 µM): 24.34 % OF CONTROL | VIRAL LOAD MOI 0.001 (% OF CONTROL) (SARS-CoV-2 E RNA; dose 35 µM): 0.00 % OF CONTROL | VIRAL LOAD MOI 0.001 (% OF CONTROL) (SARS-CoV-2 E RNA; dose 50 µM): 0.06 % OF CONTROL | LOG DROP (SARS-CoV-2 E RNA; dose 12.5 µM): 0.55 | LOG DROP (SARS-CoV-2 E RNA; dose 25 µM): 0.6 | LOG DROP (SARS-CoV-2 E RNA; dose 35 µM): 5.5 | LOG DROP (SARS-CoV-2 E RNA; dose 50 µM): 3.2 | CC50 at 72 h (in vitro): 35 µM | PC MAX ([4]; Maximum concentration that protects cells (100%) from the cytopathic effect, Vero-E6, MOI 0.001, 72 hours): 50 µM | PC MIN ([4]; Minimum concentration that protects cells (100%) from the cytopathic effect, Vero-E6, MOI 0.001, 72 hours): 25 µM | antiviral activity at non-cytotoxic concentrations ([4]; human coronavirus, including SARS-CoV-2): 12.5 to 50 µM
